This note sets out measurements from patent publication EP1382597A2, “Steroid receptor modulator compounds and methods” (LIGAND PHARMACEUTICALS, INC., priority 1994, dated 1996).

Test [1] relates to PR. The test can be described thus: Uterine wet weight assay (PR agonist effectiveness). The class given is in vivo, Sprague-Dawely rats. The text has this: J. Obstet. […] R.I. Dorfman, Academic Press, New York, New York, pp101-130 (1969), the disclosures of which are herein incorporated by reference. Four to five week old, ovariectomized, Sprague-Dawely rats (Harlan-Sprague-Dawely, Indianapolis, IN) were obtained 1 week after surgery and allowed to acclimate for an additional week after shipment.

For test [2], the target named is T1, MR (Homo sapiens, UniProt P08235).
T1 construct: expressed in transfected cells; host or cells: CV-1 cells, transient transfection
T1 sequence (P08235 1-984): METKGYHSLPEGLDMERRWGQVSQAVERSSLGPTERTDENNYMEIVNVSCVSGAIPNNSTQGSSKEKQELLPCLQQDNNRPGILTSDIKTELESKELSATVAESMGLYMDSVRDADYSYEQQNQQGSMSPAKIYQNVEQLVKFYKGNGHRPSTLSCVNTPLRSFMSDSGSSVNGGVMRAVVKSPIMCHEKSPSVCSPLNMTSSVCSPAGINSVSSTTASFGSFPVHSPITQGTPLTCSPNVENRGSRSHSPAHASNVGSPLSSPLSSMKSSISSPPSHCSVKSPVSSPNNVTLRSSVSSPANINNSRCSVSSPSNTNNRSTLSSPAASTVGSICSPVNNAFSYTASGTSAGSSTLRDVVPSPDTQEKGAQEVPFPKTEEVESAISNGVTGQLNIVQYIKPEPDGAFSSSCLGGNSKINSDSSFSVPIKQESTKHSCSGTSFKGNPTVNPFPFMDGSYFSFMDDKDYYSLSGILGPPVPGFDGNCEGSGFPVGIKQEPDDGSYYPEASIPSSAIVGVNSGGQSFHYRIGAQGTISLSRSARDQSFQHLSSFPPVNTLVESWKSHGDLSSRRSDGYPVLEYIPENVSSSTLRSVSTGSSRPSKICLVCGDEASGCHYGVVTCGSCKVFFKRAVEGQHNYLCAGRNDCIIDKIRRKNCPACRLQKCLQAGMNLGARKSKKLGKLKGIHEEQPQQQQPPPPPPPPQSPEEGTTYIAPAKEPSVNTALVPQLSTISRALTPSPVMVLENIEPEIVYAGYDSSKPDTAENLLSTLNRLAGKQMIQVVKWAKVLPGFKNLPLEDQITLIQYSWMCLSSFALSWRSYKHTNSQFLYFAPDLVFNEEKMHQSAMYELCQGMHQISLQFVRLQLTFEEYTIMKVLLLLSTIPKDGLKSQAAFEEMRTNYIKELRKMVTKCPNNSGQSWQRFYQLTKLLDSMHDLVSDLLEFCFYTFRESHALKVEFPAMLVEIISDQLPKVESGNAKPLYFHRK
The test can be described thus: Co-transfection assay, MR antagonist activity. It counts as cell-based. The following applies: for Emax: CV-1, read-out: MR Antagonist CV-1 Cells Efficacy (%).

In test [3] the target is T2, human PR-B (Homo sapiens, UniProt P06401).
T2 construct: expressed in transfected cells; host or cells: CV-1 cells (African green monkey kidney fibroblasts), transient transfection
T2 sequence (P06401 1-933): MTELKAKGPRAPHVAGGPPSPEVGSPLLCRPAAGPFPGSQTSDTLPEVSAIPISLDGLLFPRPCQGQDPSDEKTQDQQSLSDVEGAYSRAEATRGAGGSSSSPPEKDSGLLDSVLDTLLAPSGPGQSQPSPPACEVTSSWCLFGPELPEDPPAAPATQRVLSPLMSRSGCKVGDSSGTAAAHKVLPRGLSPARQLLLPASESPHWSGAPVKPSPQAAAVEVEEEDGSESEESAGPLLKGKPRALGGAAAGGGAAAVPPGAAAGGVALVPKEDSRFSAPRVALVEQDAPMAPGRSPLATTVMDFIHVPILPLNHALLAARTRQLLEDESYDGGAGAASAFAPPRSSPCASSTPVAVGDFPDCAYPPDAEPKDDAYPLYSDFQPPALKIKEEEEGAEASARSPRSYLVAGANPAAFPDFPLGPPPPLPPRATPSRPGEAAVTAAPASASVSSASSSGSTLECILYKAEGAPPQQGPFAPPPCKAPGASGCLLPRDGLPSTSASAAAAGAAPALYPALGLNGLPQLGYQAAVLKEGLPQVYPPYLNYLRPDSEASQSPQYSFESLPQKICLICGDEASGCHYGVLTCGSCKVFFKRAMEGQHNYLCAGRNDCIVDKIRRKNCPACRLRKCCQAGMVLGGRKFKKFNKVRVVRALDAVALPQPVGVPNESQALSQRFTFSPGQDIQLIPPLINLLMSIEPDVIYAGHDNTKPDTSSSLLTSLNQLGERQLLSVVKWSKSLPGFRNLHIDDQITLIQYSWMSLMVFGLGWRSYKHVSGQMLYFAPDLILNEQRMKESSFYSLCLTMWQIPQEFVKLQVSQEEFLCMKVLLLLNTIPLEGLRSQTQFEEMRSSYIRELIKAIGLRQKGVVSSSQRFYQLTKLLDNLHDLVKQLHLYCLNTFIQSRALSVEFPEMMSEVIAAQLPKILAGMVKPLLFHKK
The test can be described thus: Co-transfection assay, PR antagonist activity.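 As to all read-outs here: monkey kidney fibroblasts co-transfected with receptor expression plasmid and hormone-responsive luciferase reporter, antagonism read as reduced luciferase signal.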 The following applies: for Emax: CV-1, read-out: PR Antagonist CV-1 Cells Efficacy (%). It counts as cell-based.

The target of test [4] is T3, GR (Homo sapiens, UniProt P04150).
T3 construct: expressed in transfected cells; host or cells: CV-1 cells, transient transfection
T3 sequence (P04150 1-777): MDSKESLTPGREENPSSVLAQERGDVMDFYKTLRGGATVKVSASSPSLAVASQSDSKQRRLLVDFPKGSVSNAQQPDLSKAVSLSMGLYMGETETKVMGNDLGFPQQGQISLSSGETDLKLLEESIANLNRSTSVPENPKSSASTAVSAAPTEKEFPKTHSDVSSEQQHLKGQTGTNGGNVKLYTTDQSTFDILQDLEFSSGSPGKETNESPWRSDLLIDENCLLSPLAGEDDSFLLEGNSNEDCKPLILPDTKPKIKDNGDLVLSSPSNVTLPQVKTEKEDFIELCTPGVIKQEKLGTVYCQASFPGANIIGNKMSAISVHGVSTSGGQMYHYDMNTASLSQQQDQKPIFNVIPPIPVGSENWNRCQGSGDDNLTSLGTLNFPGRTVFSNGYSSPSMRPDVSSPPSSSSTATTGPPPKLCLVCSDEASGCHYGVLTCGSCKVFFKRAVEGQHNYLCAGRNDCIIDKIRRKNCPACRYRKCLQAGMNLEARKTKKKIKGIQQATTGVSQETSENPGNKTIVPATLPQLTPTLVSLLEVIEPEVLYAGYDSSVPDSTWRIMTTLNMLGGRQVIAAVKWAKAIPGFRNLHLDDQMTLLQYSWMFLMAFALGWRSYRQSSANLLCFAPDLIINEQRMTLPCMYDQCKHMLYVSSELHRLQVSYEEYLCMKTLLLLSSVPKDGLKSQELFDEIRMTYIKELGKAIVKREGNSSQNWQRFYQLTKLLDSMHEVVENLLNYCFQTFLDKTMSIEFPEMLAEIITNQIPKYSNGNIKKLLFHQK
The test can be described thus: Co-transfection assay, GR antagonist activity. It counts as cell-based. The following applies: for Emax: CV-1, read-out: GR Antagonist CV-1 Cells Efficacy (%).

Test [5] concerns the target T4, ER (Homo sapiens, UniProt P03372).
T4 construct: expressed in transfected cells; host or cells: CV-1 cells, transient transfection, with MTV-ERE5-LUC reporter
The test can be described thus: Co-transfection assay, ER antagonist activity. It counts as cell-based. To be noted: for ER Antagonist CV-1 Cells Efficacy (%): percent maximal inhibition, estradiol at its EC50.

The target of test [6] is T2, human PR-B. The test can be described thus: Co-transfection assay, PR agonist activity.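 As to all read-outs here: CV-1 cells (African green monkey kidney) co-transfected with receptor plasmid and hormone-responsive firefly luciferase reporter, agonism read as compound-dependent rise in luciferase signal.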 It counts as cell-based. The following applies: for Emax: CV-1, read-out: PR Agonist CV-1 Cells Efficacy (%).
The target of test [7] is T5, AR (Homo sapiens, UniProt P10275).
T5 construct: expressed in transfected cells; host or cells: CV-1 cells, transient transfection
T5 sequence (P10275 whole entry): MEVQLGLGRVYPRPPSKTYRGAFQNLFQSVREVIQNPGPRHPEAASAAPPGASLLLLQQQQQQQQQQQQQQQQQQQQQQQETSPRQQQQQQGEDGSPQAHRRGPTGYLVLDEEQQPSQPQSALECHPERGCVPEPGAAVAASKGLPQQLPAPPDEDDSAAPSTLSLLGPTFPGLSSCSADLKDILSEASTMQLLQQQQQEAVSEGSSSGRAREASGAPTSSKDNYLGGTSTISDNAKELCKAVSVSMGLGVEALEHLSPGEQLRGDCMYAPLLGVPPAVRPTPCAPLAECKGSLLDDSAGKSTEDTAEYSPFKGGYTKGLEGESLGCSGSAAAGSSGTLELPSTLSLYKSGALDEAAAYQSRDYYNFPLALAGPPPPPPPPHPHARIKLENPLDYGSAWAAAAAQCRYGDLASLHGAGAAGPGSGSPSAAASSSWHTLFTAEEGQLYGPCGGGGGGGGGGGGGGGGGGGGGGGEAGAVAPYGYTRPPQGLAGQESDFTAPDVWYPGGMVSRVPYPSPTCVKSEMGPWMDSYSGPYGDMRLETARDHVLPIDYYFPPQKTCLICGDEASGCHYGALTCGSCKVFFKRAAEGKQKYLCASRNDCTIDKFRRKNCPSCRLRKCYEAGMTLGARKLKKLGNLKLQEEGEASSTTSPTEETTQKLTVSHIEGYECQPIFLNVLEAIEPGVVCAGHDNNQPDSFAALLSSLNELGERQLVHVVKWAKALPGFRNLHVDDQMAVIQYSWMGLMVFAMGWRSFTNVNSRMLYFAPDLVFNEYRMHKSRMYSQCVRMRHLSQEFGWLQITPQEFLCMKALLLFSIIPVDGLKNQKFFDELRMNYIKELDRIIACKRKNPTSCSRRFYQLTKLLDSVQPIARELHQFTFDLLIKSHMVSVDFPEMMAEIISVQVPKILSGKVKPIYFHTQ
The test can be described thus: Co-transfection assay, AR antagonist activity. It counts as cell-based.

Test [8] deals with T4, ER. The test can be described thus: Co-transfection assay, ER agonist activity. The following applies: for Emax: CV-1, read-out: ER Agonist CV-1 Cells Efficacy (%). It counts as cell-based.

Read-outs that look alike come from different tables or passages of the source.

T4 sequence (P03372 whole entry): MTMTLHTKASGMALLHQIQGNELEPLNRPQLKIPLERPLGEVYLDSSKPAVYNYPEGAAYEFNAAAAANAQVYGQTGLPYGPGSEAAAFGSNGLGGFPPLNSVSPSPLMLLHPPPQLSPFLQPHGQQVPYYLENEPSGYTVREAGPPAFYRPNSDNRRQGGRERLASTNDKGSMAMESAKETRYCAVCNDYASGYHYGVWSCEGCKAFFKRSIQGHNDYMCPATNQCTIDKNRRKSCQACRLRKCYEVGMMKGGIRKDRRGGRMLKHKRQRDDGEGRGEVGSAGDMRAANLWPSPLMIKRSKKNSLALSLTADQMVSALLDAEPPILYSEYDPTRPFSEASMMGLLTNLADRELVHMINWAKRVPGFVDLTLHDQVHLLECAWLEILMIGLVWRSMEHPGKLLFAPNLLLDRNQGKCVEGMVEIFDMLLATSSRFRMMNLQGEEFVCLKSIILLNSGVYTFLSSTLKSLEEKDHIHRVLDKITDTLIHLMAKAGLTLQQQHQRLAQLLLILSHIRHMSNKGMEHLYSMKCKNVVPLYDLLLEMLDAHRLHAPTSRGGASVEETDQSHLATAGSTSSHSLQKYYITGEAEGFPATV

As for `CCCCC1Oc2ccc(F)cc2-c2ccc3c(c21)C(C)=CC(C)(C)N3` (racemic) [Compound 210, (R/S)-5-Butyl-9-fluoro-1,2-dihydro-2,2,4-trimethyl-5H-chromeno[3,4-f]quinoline], the “effect on uterine wet weight” value in test [1] (co-administered with estrone, doses of 0.3 mg, 1.0 mg, and 3.0 mg/rat) is “decreased by approximately half”.

Turning to `C[C@]12CC[C@@H]3c4ccc(O)cc4CC[C@H]3[C@@H]1CCC2=O` [estrone, reference compound], the “Mean Uterine Wet Weight” value in test [1] (estrone 10 µg/day subcutaneous alone, three days, ovariectomized rats) is 205 mg. The “increase of uterine wet weight over control treated animals” value in test [1] (estrone alone) was found to be 4 fold.

As for `CC1=CC(C)(C)Nc2ccc3c(c21)C(c1ccsc1)Oc1ccccc1-3` (racemic) [Compound 170, (R/S)-1,2-Dihydro-2,2,4-trimethyl-5-(thiophen-3-yl)-5H-chromeno[3,4-f]quinoline], the Emax in test [2] came to 84%; in test [4] it was 94%. Besides, the IC50 in test [3] turned out to be 145 nM; in test [5], 580 nM; in test [7], 290 nM. The “ER Antagonist CV-1 Cells Efficacy (%)” value in test [5] stood at 78%. In test [6], the EC50 came to 73 nM.

Molecule `CC(C)(O)C(=O)Nc1ccc([N+](=O)[O-])c(C(F)(F)F)c1` [Flut] came in with an IC50 in test [5] above 10000 nM. In test [8], this molecule gave an EC50 above 10000 nM.

With `CC1=CC(C)(C)Nc2ccc3c(c21)C(c1cccc(C(F)(F)F)c1)Oc1ccccc1-3` (racemic) [Compound 195, (R/S) 1,2-Dihydro-2,2,4-trimethyl-5-[3-(trifluoromethyl)phenyl]-5H-chromeno[3,4-f]quinoline], the Emax in test [2] is 47%; in test [3], below 20%; in test [4] it was 96%; in test [8], 90%; in test [6], 89%. The IC50 is 4410 nM in test [5] and 470 nM in test [7]. Further, the “ER Antagonist CV-1 Cells Efficacy (%)” value in test [5] is 68%.

Consider `CC1=CC(C)(C)Nc2ccc3c(c21)C(c1ccccc1)Oc1ccccc1-3` (racemic) [Compound 161, (R/S)-1,2-Dihydro-2,2,4-trimethyl-5-phenyl-5H-chromeno[3,4-f]quinoline], for which the Emax in test [2] was 58%; in test [3], 75%; in test [4], 97%; in test [6] it was 47%.

Consider `CC1=CC(C)(C)Nc2ccc3c(c21)C(c1ccc(C)cc1)Oc1ccccc1-3` (racemic) [Compound 167, (R/S)-1,2-Dihydro-2,2,4-trimethyl-5-(4-methylphenyl)-5H-chromeno[3,4-f]quinoline], for which the results for the Emax in test [2] and in test [4] were 61% and 96%, respectively.

For the molecule `CC(=O)S[C@@H]1CC2=CC(=O)CC[C@]2(C)[C@H]2CC[C@@]3(C)[C@@H](CC[C@@]34CCC(=O)O4)[C@H]12` [Spir, 7-alpha-[acetylthio]-17-alpha-hydroxy-3-oxopregn-4-ene-21-carboxylic acid gamma-lactone, reference compound], the results for the Emax in test [2] and in test [4] were 96% and 80%, respectively.

With `C=C1CC(C)(C)Nc2ccc3c(c21)C(c1cccc(F)c1)Oc1ccccc1-3` (racemic) [Compound 192, (R/S)-5-(3-Fluorophenyl)-1,2,3,4-tetrahydro-2,2-dimethyl-4-methylidene-5H-chromeno[3,4-f]quinoline], the Emax in test [2] is 70%; in test [4], 81%; in test [8], below 20%. The IC50 in test [3] came to 89 nM; in test [5], 195 nM; in test [7], 79 nM. In test [5], the “ER Antagonist CV-1 Cells Efficacy (%)” value was determined as 80%. For the same molecule, the EC50 in test [8] and in test [6] was above 10000 nM in each case.

For `CC#C[C@]1(O)CC[C@H]2[C@@H]3CCC4=CC(=O)CCC4=C3[C@@H](c3ccc(N(C)C)cc3)C[C@@]21C` [RU486, (11beta, 17beta)-11-[4-(dimethylamino)phenyl]-17-hydroxy-17-(1-propynyl)estra-4,9-dien-3-one, reference compound], the Emax in test [2] was 77%; in test [4] it was 100%; in test [6] it was below 20%.

On to “8-Fluoro-1,2-dihydro-2,2,4-trimethylindeno[1,2-g]quinoline [Compound 124]”, for which the IC50 in test [2] (Table 5 overall potency, co-transfection assay, read-out: MR Potency Antag) is above 10000 nM; in test [4] (Table 5 overall potency, co-transfection assay, read-out: GR Potency Antag), above 10000 nM; in test [5] (Table 5 overall potency, co-transfection assay, read-out: ER Potency Antag) it was above 10000 nM. For the same molecule, the EC50 in test [8] (Table 5 overall potency, co-transfection assay, read-out: ER Potency Agon) was determined as 2100 nM.

Take `CCCCN(C)C(=O)CCCCCCCCCC[C@@H]1Cc2cc(O)ccc2[C@H]2CC[C@]3(C)[C@@H](O)CC[C@H]3[C@H]12` [ICI 164, N-butyl-3,17-dihydroxy-N-methyl-(7-alpha, 17-beta)-estra-1,3,5(10)-triene-7-undecanamide, reference compound]: the “ER Antagonist CV-1 Cells Efficacy (%)” value in test [5] is recorded as 99%. Further, the Emax in test [8] is below 20%.
